In article PMC6736568, “Discovery of Novel Anti-cryptosporidial Activities From Natural Products by in vitro High-Throughput Phenotypic Screening” (Frontiers in Microbiology, 2019):
Counter-ions that a name gives are not always drawn. Like-named read-outs stand apart in the source and are kept apart here.

How the values were obtained:
Cryptosporidium parvum = experiment: qRT-PCR assay of the growth of C. parvum in vitro in HCT-8 host cells (primary and secondary screening, EC50); format: cell-based; conditions: Cryptosporidium parvum, HCT-8; for inhibition at 3.3 µM: secondary screening at 3.3 uM, read-out: % Inhibition (3.3 uM)
[1] = primary screening at 10 uM, treated vs control
[2] = primary screening at 10 uM, read-out: Inhibition (%)

Row | SMILES | Hs18S ΔCT (HCT-8 host cells (Hs18S); [1]) | inhibition at 10 µM (Cryptosporidium parvum; [2]) | Hs18S ΔCT (HCT-8 host cells (Hs18S); human, 41 h, 10 μM) | cytotoxicity at 41 h, 10 µM (in vitro; human) | other results
1 | CC(=O)Oc1cc(OC(C)=O)c2c(c1)O[C@H](c1ccc(OC(C)=O)c(OC(C)=O)c1)[C@@H](OC(C)=O)C2 [CATECHIN PENTAACETATE] | -0.26 | 10.7% |  |  | cytotoxicity at 10 µM (in vitro): -19.6%
2 | COc1cc(O)c(C(=O)c2ccccc2)cc1O [CEAROIN] |  | -22.5% | -0.27 | -21% | 
3 | C[C@@H]1CC[C@H]2C(C)(C)[C@H]3C[C@@]12CC[C@@]3(C)O [CEDROL] |  | -4.53% | -0.11 | -7.7% | 
4 | CC(=O)O[C@]1(C)CC[C@@]23C[C@@H]1C(C)(C)[C@@H]2CC[C@H]3C [CEDRYL ACETATE] | 0.05 | 9.38% |  |  | cytotoxicity at 10 µM (in vitro): 3.6%
5 | COc1ccc2cc1Oc1ccc(cc1)C[C@H]1c3c(cc4c(c3Oc3cc5c(cc3OC)CCN(C)[C@@H]5C2)OCO4)CCN1C [CEPHARANTHINE] |  | 16.8% | 0.33 | 20.5% | 
6 | CCOC(=O)CCCCCCCCCCCCC1C=CCC1 (stereo not drawn) [CHAULMOOGRIC ACID, ETHYL ESTER] |  | -0.95% | -0.15 | -10.8% | 
7 | O=C(O)CCCCCCCCCCCC[C@@H]1C=CCC1 [CHAULMOOGRIC ACID] |  | -4.94% | -0.58 | -49.1% | 
8 | C[C@H](CCC(=O)O)[C@H]1CC[C@H]2[C@@H]3[C@H](O)C[C@@H]4C[C@H](O)CC[C@]4(C)[C@H]3CC[C@]12C [CHENODIOL] |  | 77.7% | 0.27 | 17.2% | 
9 | O=C(/C=C/c1ccc(O)c(O)c1)O[C@@H]1C[C@](O)(C(=O)O)C[C@@H](O)[C@H]1O [CHLOROGENIC ACID] |  | -24.5% | -0.13 | -9.1% | 
10 | CN(C)[C@@H]1C(O)=C(C(N)=O)C(=O)[C@@]2(O)C(O)=C3C(=O)c4c(O)ccc(Cl)c4[C@@](C)(O)[C@H]3C[C@@H]12 [CHLORTETRACYCLINE HYDROCHLORIDE] | -0.03 | -14.1% |  |  | cytotoxicity at 10 µM (in vitro): -2%
11 | C=C1CC[C@H](O)C/C1=C/C=C1\CCC[C@]2(C)[C@@H]([C@H](C)CCCC(C)C)CC[C@@H]12 [CHOLECALCIFEROL] | -0.21 | 0.08% |  |  | cytotoxicity at 10 µM (in vitro): -15.8%
12 | CC(C)CCC[C@@H](C)[C@H]1CC[C@H]2[C@@H]3CC=C4CC(=O)CC[C@]4(C)[C@H]3CC[C@]12C [CHOLEST-5-EN-3-ONE] |  | -37.5% | 0.04 | 2.7% | 
13 | CC(C)CCC[C@@H](C)[C@H]1CC[C@H]2[C@@H]3CC[C@H]4CC(=O)CC[C@]4(C)[C@H]3CC[C@]12C [CHOLESTAN-3-ONE] | -0.48 | -36.7% |  |  | cytotoxicity at 41 h, 10 µM (in vitro): -39.9%
14 | CC(C)CCC[C@@H](C)[C@H]1CC[C@H]2[C@@H]3CC=C4C[C@@H](O)CC[C@]4(C)[C@H]3CC[C@]12C [CHOLESTEROL] |  | -26.8% | -0.05 |  | cytotoxicity at 10 µM (in vitro): -3.8%
15 | COC(=O)CC[C@@H](C)[C@H]1CC[C@H]2[C@@H]3[C@H](O)C[C@@H]4C[C@H](O)CC[C@]4(C)[C@H]3C[C@H](O)[C@]12C [CHOLIC ACID, METHYL ESTER] |  | 42.1% | -0.11 | -7.7% | 
16 | CCOC(=O)C1C(C=C(C)C)C1(C)C (stereo not drawn) [CHRYSANTHEMIC ACID, ETHYL ESTER] | -0.97 | 24.6% |  |  | inhibition at 3.3 µM (Cryptosporidium parvum): 91%; cytotoxicity at 41 h, 10 µM (in vitro): -95.7%
17 | CC(C)=CC1C(C(=O)O)C1(C)C (stereo not drawn) [CHRYSANTHEMIC ACID] | -0.32 | -13.4% |  |  | cytotoxicity at 10 µM (in vitro): -24.6%
18 | CC(C)=CC1C(CO)C1(C)C (stereo not drawn) [CHRYSANTHEMYL ALCOHOL] |  | -16.9% | -0.13 | -9.5% | 
19 | Cc1cc(O)c2c(O)c3c(O)cccc3cc2c1 [CHRYSAROBIN] |  | -8.96% | 0.48 | 28.2% | 
20 | COc1cc(OC)c2c(=O)cc(-c3ccccc3)oc2c1 [CHRYSIN DIMETHYL ETHER] | -0.12 | 90.3% |  |  | inhibition at 3.3 µM (Cryptosporidium parvum): -69%; cytotoxicity at 10 µM (in vitro): -8.6%
21 | O=c1cc(-c2ccccc2)oc2cc(O)cc(O)c12 [CHRYSIN] |  | 20.3% | 0.14 | 9.3% | 
22 | Cc1cc(O)c2c(c1)C(=O)c1cccc(O)c1C2=O [CHRYSOPHANOL] |  | -71.6% | 0.17 | 11.4% | 
23 | Oc1cc(O)c2c(c1)O[C@H](c1ccc(O)c(O)c1)[C@@H](O)C2 [CIANIDANOL] |  | 2% | -0.20 | -14.9% | 
24 | C=C[C@H]1CN2CC[C@H]1C[C@H]2[C@H](O)c1ccnc2ccccc12 [CINCHONIDINE] | -0.20 | 3.76% |  |  | cytotoxicity at 41 h, 10 µM (in vitro): -15.2%
25 | C=C[C@H]1C[N@@]2CC[C@H]1C[C@@H]2[C@@H](O)c1ccnc2ccccc12 [CINCHONINE] | 0.01 | -10.5% |  |  | cytotoxicity at 41 h, 10 µM (in vitro): 0.4%

Row | SMILES | Hs18S ΔCT (HCT-8 host cells (Hs18S); [1]) | inhibition at 10 µM (Cryptosporidium parvum; [2]) | Hs18S ΔCT (HCT-8 host cells (Hs18S); human, 41 h, 10 μM) | cytotoxicity at 41 h, 10 µM (in vitro; human) | other results
26 | O=C(O)/C=C/c1ccccc1 [CINNAMIC ACID] | -0.39 | 2.86% |  |  | cytotoxicity at 10 µM (in vitro): -31%
27 | CC1=C2C(=CO[C@H](C)[C@H]2C)C(O)=C(C(=O)O)C1=O [CITRININ] | 0.13 | 8.51% |  |  | cytotoxicity at 10 µM (in vitro): 8.3%
28 | COc1cc(OC)c2ccc(=O)oc2c1 [CITROPTEN] |  | -43.6% | 0.38 | 23.1% | 
29 | NC(=O)NCCC[C@H](N)C(=O)O [CITRULLINE] | 0.62 | -44.7% |  |  | cytotoxicity at 10 µM (in vitro): 34.9%
30 | CC(=O)OC1CCC23CC1(C)CCC2C(C)(C)CC3OC(C)=O (stereo not drawn) [CLOVANEDIOL DIACETATE] |  | -0.83% | 0.55 | 31.9% | 
31 | COc1cc2c(c(OC)c1OC)-c1ccc(=O)c(O)cc1[C@@H](NC(C)=O)CC2 [COLCHICEINE] | -0.43 | 13.7% |  |  | cytotoxicity at 10 µM (in vitro): -34.9%
32 | COc1cc2c(c(OC)c1OC)-c1ccc(OC)c(=O)cc1[C@@H](NC(C)=O)CC2 [COLCHICINE] | -0.34 | 24.9% |  |  | cytotoxicity at 10 µM (in vitro): -26.5%
33 | C=C[C@@]1(C)CC(=O)[C@]2(O)[C@@]3(C)[C@@H](O)CCC(C)(C)[C@@H]3[C@H](O)[C@H](OC(C)=O)[C@@]2(C)O1 [COLFORSIN] |  | 24.8% | 0.14 | 9.4% | 
34 | C[C@H]1[C@H]2CC[C@H]3[C@@H]4CC=C5C[C@@H](N(C)C)CC[C@]5(C)[C@H]4CC[C@]23CN1C [CONESSINE] |  | -2.33% | -0.14 | -10.4% | 
35 | COc1c2c(cc3c1OCO3)CC[N+](C)=C2 [COTARNINE CHLORIDE] |  | -14.5% | -0.20 | -15.2% | 
36 | CN1C(=O)CC[C@H]1c1cccnc1 [COTININE] |  | 42.6% | 0.41 | 24.7% | 
37 | O=c1ccc2ccccc2o1 [COUMARIN] |  | 13% | -0.05 | -3.8% | 
38 | CN1CC(=O)NC1=N [CREATININE] |  | 20.5% | 0.00 | 0.2% | 
39 | CC(C)(O)CC[C@@H](O)[C@](C)(O)[C@H]1CC[C@@]2(O)C3=CC(=O)[C@@H]4C[C@@H](O)[C@@H](O)C[C@]4(C)[C@H]3CC[C@]12C [CRUSTECDYSONE] | -0.15 | 39.8% |  | -10.6% | 
40 | C[C@H]1COC2=C1C(=O)C(=O)c1c2ccc2c1CCCC2(C)C [CRYPTOTANSHINONE] | 0.18 | 95.3% |  |  | inhibition at 3.3 µM (Cryptosporidium parvum): -85%; cytotoxicity at 10 µM (in vitro): 11.9%
41 | COc1cc(/C=C/C(=O)CC(=O)/C=C/c2ccc(O)c(OC)c2)ccc1O [CURCUMIN] | 0.03 | 24.3% |  | 2.4% | 
42 | NCCSSCCN [CYSTAMINE DIHYDROCHLORIDE] |  | 5.08% | -0.15 | -11.2% | 
43 | Nc1ccn([C@@H]2O[C@H](CO)[C@@H](O)[C@H]2O)c(=O)n1 [CYTIDINE] |  | 36.7% | -0.53 | -44.6% | 
44 | O=c1cccc2n1C[C@@H]1CNC[C@H]2C1 [CYTISINE] |  |  |  |  | Hs18S ΔCT (HCT-8 host cells (Hs18S)): -0.26; inhibition at 10 µM (Cryptosporidium parvum): 16%; cytotoxicity at 10 µM (in vitro): -20%
45 | O=c1c(-c2ccc(O)cc2)coc2cc(O)ccc12 [DAIDZEIN] |  | 39.2% | 0.01 | 0.7% | 
46 | C=CC(C1=CC(=O)C(OC)=CC1=O)c1ccc(O)cc1 (stereo not drawn) [DALBERGIONE, 4-METHOXY-4'-HYDROXY-] |  | 30.3% | 0.09 | 6.1% | 
47 | C=CC(C1=CC(=O)C=CC1=O)c1ccccc1 (stereo not drawn) [DALBERGIONE] |  | 32.8% | 0.33 | 20.4% | 
48 | O=C1c2cccc(O)c2C(=O)c2c(O)cccc21 [DANTHRON] | -0.12 | 23% |  | -8.6% | 
49 | CC(=O)N(O)CCCCCNC(=O)CCC(=O)N(O)CCCCCNC(=O)CCC(=O)N(O)CCCCCN [DEFEROXAMINE MESYLATE] |  | -48.5% | 0.31 | 19.6% | 
50 | CC(C)c1ccc2c(c1)CC[C@H]1[C@](C)(C(N)=O)CCC[C@]21C [DEHYDROABIETAMIDE] |  | 8.3% | -0.01 | -0.7% | 
